SMILES strings stand for the structures.

This is an account of results in US20040106148A1, “Polypeptides” (priority 2000, published 2004).

The target of assay [1] is human TAPP1, full length, mutant R212L (Arg212 to Leu), GST fusion (Homo sapiens, UniProt Q9HB21, R211L). Description: Protein-lipid overlay. It counts as binding. Conditions: FIG. 4B. Here is the method:
(§1) FIG. 4. Comparison of the phosphoinositide binding properties of the N-terminal and C-terminal PH domains of TAPP1 and TAPP2. The ability of wild type and mutant forms of full length (FL) and isolated N-terminal (NT) and C-terminal (CT) PH domains of TAPP1 and TAPP2 GST-fusion proteins to interact with phosphoinositides were analysed using a protein-lipid overlay. Serial dilutions of the indicated phosphoinositides (100 pmol, 50 pmol, 25 pmol, 12.5 pmol, 6.3 pmol, 3.1 pmol and 1.6 pmol) were spotted onto a nitrocellulose membrane which was then incubated with the indicated purified GST fusion proteins. The membranes were washed and the GST-fusion proteins bound to the membrane by virtue of their interactions with lipid were detected using a GST antibody. A representative experiment of three is shown. The isolated N-terminal PH domain of human TAPP1 comprises residues 1 to 147, the isolated C-terminal PH domain of human TAPP1 comprises residues 95 to 404, the isolated N-terminal PH domain of mouse TAPP2 comprises residues 1 to 131 and the isolated C-terminal PH of mouse TAPP2 comprises residues 174 to 425.
(§2) Protein-Lipid overlay. To assess the phosphoinositide binding properties of each PH domain, a protein-lipid overlay assay was performed using the GST fusion proteins as described previously. Briefly, 1 μl of lipid solution containing 1-100 pmol of phospholipids dissolved in a mixture of choroform:methanol:water (1:2:0.8) was spotted onto Hybond-C extra membrane and allowed to dry at room temperature for 1 h. The membrane was blocked in 3% (by mass) fatty acid-free BSA in TBST (50 mM Tris/HCl pH 7.5, 150 mM NaCl and 0.1% Tween-20 (by vol) for lh. The membrane was then incubated overnight at 4° C. with gentle agitation in the same solution containing 0.2 μg/ml of the indicated GST fusion protein. The membranes were washed 6 times over 30 min in TBST and then incubated for 1 h with 1/1000 dilution of anti-GST monoclonal antibody (Sigma). The membranes were washed as before, then incubated for 1 h with 1/5000 dilution of anti-mouse-HRP conjugate (Pierce). Finally, the membranes were washed 12 times over 1 h in TBST and the GST-fusion protein bound to the membrane by virtue of its interaction with phospholipid was detected by enhanced chemiluminescence.

Assay [2] deals with human TAPP1, full length, wild type, GST fusion (Homo sapiens, UniProt Q9HB21). Description: Protein-lipid overlay. It counts as binding. Particulars: FIG. 4A and Table 2. Here is the method: as §1, §2
Assay [3] deals with human TAPP1 C-terminal PH domain, mutant R212L (Arg212 to Leu), GST fusion (Homo sapiens, UniProt Q9HB21, R211L). Description: Protein-lipid overlay. The class given is binding. Particulars: FIG. 4B. Here is the method:
as §1, §2

For assay [4], the target named is human TAPP1, full length, mutant R28L (Arg28 to Leu), GST fusion (Homo sapiens, UniProt Q9HB21, R28L). Description: Protein-lipid overlay. The class given is binding. Conditions: FIG. 4B. Here is the method:
as §1, §2

Assay [5] deals with T1, human TAPP1 C-terminal PH domain (CT-PH TAPP1, residues 95 to 404), GST fusion (Homo sapiens, UniProt Q9HB21, T320A).
T1 construct: made in house; host or cells: human embryonic kidney 293 cells (pEBG-2T)
Description: Surface plasmon resonance (BIACore), GST fusion binding to phosphoinositide in supported lipid monolayer. Conditions: supported phosphatidylcholine monolayers, 1:1 binding model, read-out: Apparent Kd. The source says: Cloning of PH domains and preparation of expression constructs. All the human and mouse EST's were obtained from the I.M.A.G.E. Consortium and sequenced. The plant EST (accession number T04439) encoding a full length clone of AtPH1 was obtained from the Arabidopsis Biological Research. Centre (Ohio University). The sequence of each EST was verified and the full length PH domain of each EST was amplified by PCR using the Hi-fidelity PCR system with primers designed to incorporate a Kozak site, an initiating ATG codon followed by a myc epitope tag and a stop codon after the PH domain. […]
Kinetic analyses of the interactions between the GST PH domain fusions and the polyphosphoinositides were made using surface plasmon resonance based procedures as described previously, with the following modifications. […] Data were analysed using the bimolecular interaction model and the global fitting feature of the BIAevaluation 3 software for several sensorgrams at different protein concentrations. […] The relative binding affinities of each protein relative to the binding of full length GST-TAPP1 to PtdIns(3,4)P2 were also calculated.
We studied the specificity and affinity of interaction of the PH domains for phosphoinositide lipids using either a “protein-lipid overlay” assay (FIG. 2) or the more quantitative surface plasmon resonance based approach (Table 2). […]

human TAPP1, full length, mutant R212L (Arg212 to Leu), GST fusion, sequence (Q9HB21 whole entry R211L, the tested form may be a part): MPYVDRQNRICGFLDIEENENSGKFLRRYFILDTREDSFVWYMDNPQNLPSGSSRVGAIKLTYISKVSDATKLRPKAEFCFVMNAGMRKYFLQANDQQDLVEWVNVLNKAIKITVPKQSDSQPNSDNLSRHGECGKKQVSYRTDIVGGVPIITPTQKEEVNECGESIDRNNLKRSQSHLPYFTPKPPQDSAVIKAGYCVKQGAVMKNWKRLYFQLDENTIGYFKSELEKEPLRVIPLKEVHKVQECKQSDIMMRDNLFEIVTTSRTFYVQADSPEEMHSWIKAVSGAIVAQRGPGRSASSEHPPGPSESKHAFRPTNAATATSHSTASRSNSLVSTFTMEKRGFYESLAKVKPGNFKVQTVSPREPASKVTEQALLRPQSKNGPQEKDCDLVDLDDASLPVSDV
human TAPP1, full length, mutant R28L (Arg28 to Leu), GST fusion, sequence (Q9HB21 whole entry R28L, the tested form may be a part): as the sequence (Q9HB21 whole entry R211L, the tested form may be a part) above, with R28L, L211R counted along it
human TAPP1 C-terminal PH domain, mutant R212L (Arg212 to Leu), GST fusion, sequence (Q9HB21 95-404 R211L): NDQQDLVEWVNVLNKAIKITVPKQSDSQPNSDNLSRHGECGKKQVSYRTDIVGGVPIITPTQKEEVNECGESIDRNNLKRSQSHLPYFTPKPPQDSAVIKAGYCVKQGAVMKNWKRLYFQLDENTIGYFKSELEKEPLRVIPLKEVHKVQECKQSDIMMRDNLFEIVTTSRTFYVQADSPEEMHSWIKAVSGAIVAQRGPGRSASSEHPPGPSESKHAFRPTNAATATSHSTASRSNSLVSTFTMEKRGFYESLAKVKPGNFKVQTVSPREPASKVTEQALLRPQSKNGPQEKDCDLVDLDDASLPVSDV
human TAPP1, full length, wild type, GST fusion, sequence (Q9HB21 whole entry, the tested form may be a part): as the sequence (Q9HB21 whole entry R211L, the tested form may be a part) above, with L211R counted along it
T1 sequence (Q9HB21 95-404 T320A): as the sequence (Q9HB21 95-404 R211L) above, with L117R, T226A counted along it

With `CCCCCCCCCCCCCCCC(=O)OC[C@H](COP(=O)(O)O[C@H]1[C@H](O)[C@@H](O)[C@H](OP(=O)(O)O)[C@@H](OP(=O)(O)O)[C@H]1O)OC(=O)CCCCCCCCCCCCCCC` [PtdIns(3,4)P2], the “effect of mutation on interaction” value in assay [1] is “abolished the interaction”; in assay [3], “abolished the interaction”; in assay [4], “did not affect the interaction”. Also, the phosphoinositide binding result in assay [2] is listed as “interacted specifically”. The Kd in assay [5] was determined as 27 nM.
